Test results published in patent US9764047B2, “Method for obtaining novel derivatives of naphthalene for the in vivo diagnosis of alzheimer's disease” (CENTRO DE NEUROCIENCIAS DE CUBA, priority 2009, dated 2017).
Read-outs that look alike come from different tables or passages of the source. One block for each compound: values may come before it.

Columns and labels:
[1] = Biodistribution in rats after intravenous injection (gamma camera imaging); format: in vivo, male Wistar rats
Protocol: The arrow indicates the detection of the compound in the region of interest (maximum uptake at about 3 min.).
Animal Studies: A solution of 9 15 MBq ([…]), prepared as described above, was administered to male Wistar rats (160 g, n=3) through the lateral tail vein. Then, images were taken every 15 seconds, for 30 min. (120 images) with a gamma camera (Medis Nucline TH22, Hungary), with a peak centered at 360 keV and a window of ±25%. The image processing was performed on a processing station Segami (USA).

[2] = Determination of partition coefficients (n-octanol/water, radiotracer method); format: physicochemical
From the text: Chemical compounds that cross the blood brain barrier (BBB) should be neutral and lipophilic and also, have a low molecular weight. The partition coefficient (P) provides a measure of the compound lipophilicity and is closely related to drug distribution in the body, its absorption in tissues and its route of excretion (Meade et al. in Curr. Opin. Neurobiol., 2003, 13, 5, 597-602). One method used to determine this parameter is that of radiotracers which relates the radiotracers activity or number of counts in the octanol organic phase with that of the aqueous phase. In this invention the compounds labeling is carried out using the Iodogeno method (^131I).
Determination of Partition Coefficients: A solution of 9 (20 μL), prepared as described in example 10, was added to a mixture of 3 ml of n-octanol and 3 ml of distilled water. After stirring and leaving to stand the mixture, aliquots of 20 μL from each phase were taken to determine the radiometric distribution ratio by an activity meter (CRC 35R, Capintec Inc.). This procedure was repeated to the radiopharmaceutical of ^99mTc-ECD as reference, which is used for cerebral perfusion studies.

- melting point: 180.5 to 181.8 °C
Compound: O=C(O)CCNC(=O)CCC(=O)Nc1cccc2ccccc12

Compound: N1-(2-aminoethyl)-N4-(1-naphthyl) succinimide-^131I [Compound 9]
- time of maximum uptake in the region of interest ([1]; 131I-labeled compound): about 3 min
- excretion of the radioiodinated compound ([1]; after maximum uptake): slow excretion
- Partition coefficient ([2]; n-octanol/distilled water, radiometric distribution ratio): 0.54
- logP ([2]; octanol/water): −0.27

- melting point: 167 to 169 °C
Compound: O=C(O)CCC(=O)Nc1cccc2ccccc12 [Compound 2, 4-(1-naphthylamino)-4-oxobutanoic acid]

- Partition coefficient [2]: 40.6
- logP [2]: 1.6
Compound: CCOC(=O)[C@H](C[S-])[N-]CCN[C@@H](C[S-])C(=O)OCC.[O-2].[Tc] [^99mTc-ECD, ^99mTc-ethylcysteinate diethyl ester, reference compound]
